Measured values taken from patent publication US7381707B2, “Treatment of dry eye” (Johnson & Johnson Consumer Companies, Inc., priority 2005, dated 2008).
“Also recorded” adds a separate entry of the source. No end group written: not given here.

How the values were obtained:
[1] = test system: Mucin 1 (MUC1); assay: MUC1 gene expression (RT-PCR) in human corneal epithelial equivalents; type: cell-based; conditions: 200 μM; for Fold Change (MUC1:GAPDH): treatment refreshed every day, harvested end of 6th day, band density normalized against GAPDH
Protocol: Human corneal equivalents were purchased from SkinEthic Laboratories (Nice, France). Equivalents were allowed to equilibrate in SkinEthic growth medium overnight at 5% CO2, and were then treated with SLIGRL (SEQ.ID.NO.17) (200 μM), LIGR (SEQ.ID.NO.1) (200 μM) or Phosphate buffered saline (PBS) as a control. Treatment was refreshed everyday. At the end of the 6th day, equivalent samples were harvested. Total RNA was extracted from the equivalents using RNAqueous™ kit (Ambion, Austin, Tex.) according to manufacture's instructions. RNA samples were then treated with DNA-free kit (Ambion, Austin Tex.). 25 nanograms of total RNA from each sample were amplified using OneStep RT-PCR kit (Qiagen, Valencia, Calif.) according to the manufacture's instructions. PCR Primers were synthesized by Integrated DNA Technologies (Coralville, Iowa). Each RT-PCR reaction contained 30 pmol of each primer of MUC1 or 10 pmol of each primer of glyceraldehyde-3-phosphate dehydrogenase (GAPDH). Each PCR cycle consisted of denaturing for 50 seconds at 94° C., annealing for 1 minutes at 58° C., elongation for 1 minute at 72° C. The PCR products were resolved by electrophoresis in 1% agarose gel and stained with ethidium bromide. Kodak Gel logic 100 imaging system was used to take gel pictures and analyze product band density.
All sample densities were normalized against GAPDH.

[2] = test system: Human primary neonatal keratinocytes; assay: Secretion of inflammatory mediators by primary keratinocytes (ELISA / Beadlyte); type: cell-based; conditions: 50 μM, 24 hours; for Fold change in the secretion of inflammatory mediators: IL-6 / Fold change in the secretion of inflammatory mediators: IL-8 / Fold change in the secretion of inflammatory mediators: PGE2 / Fold change in the secretion of inflammatory mediators: PGF2α: cell media; for Fold change in the secretion of inflammatory mediators: IL-6 / Fold change in the secretion of inflammatory mediators: IL-8: Beadlyte; for Fold change in the secretion of inflammatory mediators: PGE2 / Fold change in the secretion of inflammatory mediators: PGF2α: ELISA
Protocol: Human primary neonatal keratinocytes were purchased from Cascade Biologics (Portland, Oreg.). Cells were cultured in Media 154 supplemented with human keratinocytes growth supplement (Cascade Biologics) and were maintained at <80% confluency. Cells were plated at 6×10^4 per well in 24 well plate and allowed to attach to the well overnight with 5% CO2. Cells were then treated with LIGR (50 μM), SLIGRL (50 μM), the control, scrambled peptide ISLLRG (SEQ.ID.NO.18) (50 μM) or left untreated. Each treatment was done in triplicates. 24 hours later, cell media were collected and examined for the expression and secretion of the inflammatory mediators PGE2, PGF2α, IL-8 and IL-6. PGE2 and PGF2α, using ELISA kits (Cayman Chemicals, Ann Arbor, Mich.) according to manufacturer's instructions. IL-8 and IL-6 levels were detected using Beadlyte Human Multi-cytokine Detection System (Upstate Cell Signaling Solutions, Lake Placid, N.Y.) according to manufacturer's instructions. The experiment was repeated 4 times with different lots of primary keratinocytes.

[3] = test system: Cyclooxygenase-2 (COX-2); assay: COX-2 expression (RT-PCR) in skin of topically treated mice; type: in vivo, SKH1 hairless mice; conditions: for COX-2:GAPDH: 100 μM in 70:30 ethanol:propylene glycol, once daily for 2 weeks (M-F), skin RT-PCR
Protocol: SKH1 hairless mice, were purchased from Charles River (Kingston, N.Y.), and were housed in appropriately sized cages in an environmentally controlled room with a 12-hour light—12-hour dark photoperiod and supplied with food and water ad libitum. Mice were either untreated, or treated with LIGR or SLIGRL (From California Research Peptide Research Inc. Napa, Calif.), at 100 μM, in 70:30 ethanol: propylene glycol vehicle, once daily for 2 weeks (M-F, no treatment on weekends). Following ten days of treatment, mice were sacrificed and skin samples were processed for RNA extraction and RT-PCR. The treated skins were analyzed for the expression of Cyclooxygenase-2 (COX-2), a known inflammatory mediator. Total RNA (25 ng) from each sample was subjected to one step RT-PCR reaction using OneStep RT-PCR Kit (QIAGEN®, Valencia, Calif.) according to manufacturer's instructions. The reverse transcription was carried out for 30 minutes at 50° C. and a hot start of 15 minutes at 95° C. was then included to activate HotStarTaq™ DNA polymerase in the reaction mix. PCR Primers were synthesized by Integrated DNA Technologies (Coralville, Iowa). Each RT-PCR reaction contained 30 pmol of each primer of COX-2 or 10 pmol of each primer of GAPDH. Each PCR cycle consisted of denaturing for 50 seconds at 94° C., annealing for 1 minute at 58° C., elongation for 1 minute at 72° C. The PCR products were resolved by electrophoresis in 1% agarose gel and stained with ethidium bromide. Kodak Gel logic 100 imaging system was used to take gel pictures and analyze product band density.
The results of this study are shown in Table 5, as expressed in the ratio of COX-2 expression to the expression of the housekeeping gene GAPDH. […] This in vivo study further supports that LIGR is not a classic PAR-2 activator, and is not inducing pro-inflammatory mediators under physiological conditions.

[4] = test system: HaCaT cells; assay: Intracellular Ca2+ mobilization (FLIPR) in HaCaT cells; type: cell-based; conditions: for Intracellular calcium mobilization (in words): SLIGRL 4-40 μM, LIGR and scrambled peptide at concentrations as high as 800 μM
Protocol: HaCaT cells were seeded in a black-wall 96-well plate at about 20,000 cells/100 μl/well and grown overnight in culture medium prior to the experiment. On the day of the experiment, cells were loaded with 100 μl of Calcium Plus assay reagent component A (FLEXstation calcium Plus Assay Kit, Molecular Devices, Sunnyvale, Calif.) prepared in Hanks' Balanced Salt Solution (HBSS, Mediatech, Inc., Herndon, Va.) for 30 minutes according to the manufacturer's protocol. After loading the cells, SLIGRL, LIGR and ISSLRG (at 5× concentration in 50 μl) were added to all wells (final volume 250 μl/well), and intracellular Ca^2+ levels were subsequently assayed using the FLIPR system (Molecular Devices, Sunnyvale, Calif.) to simultaneously monitor fluorescence in all wells (Wavelength−excitation=488 nm, Wavelength−emission=510 nm) according to the manufacture's protocol. The fluorescence intensity was captured every 3 seconds for the first 3 minutes after the addition of the peptides. The results of this study are shown in Table 6, in fluorescence units.

[5] = target: T1, PAR-2 (Rattus norvegicus, UniProt Q63645); conditions: rats; Nishikawa H et al, J Pharmacol Exp Ther. 2005; cited from earlier work
T1 construct: host or cells: rats in vivo (endogenous receptor)
T1 sequence (Q63645 26-397): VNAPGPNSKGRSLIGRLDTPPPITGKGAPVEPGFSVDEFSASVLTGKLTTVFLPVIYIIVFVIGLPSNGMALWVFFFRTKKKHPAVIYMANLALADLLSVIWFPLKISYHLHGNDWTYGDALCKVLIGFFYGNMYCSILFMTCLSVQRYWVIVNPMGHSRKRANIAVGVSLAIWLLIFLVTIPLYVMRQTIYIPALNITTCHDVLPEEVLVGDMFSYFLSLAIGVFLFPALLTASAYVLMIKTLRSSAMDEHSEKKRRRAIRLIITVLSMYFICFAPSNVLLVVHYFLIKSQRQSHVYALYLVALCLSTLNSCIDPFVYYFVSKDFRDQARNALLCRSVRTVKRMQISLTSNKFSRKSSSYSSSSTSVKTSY

Substance: H2-Leu-Ile-Gly-Arg-NH2 (H-LIGR-NH2)
- Fold Change (MUC1:GAPDH) [1]: 2.1
- Induction of expression of the MUC1 gene (in words) ([1]; corneal epithelial equivalents): induces the expression of the mucin1 gene; also recorded: induced the expression of the MUC1 gene
- Induction of inflammatory mediators (in words) [2]: does not induce the secretion of inflammatory mediators; also recorded: did not induce these inflammatory mediators
- Fold change in the secretion of inflammatory mediators: IL-6 [2]: 1.2
- Fold change in the secretion of inflammatory mediators: IL-8 [2]: 1.0
- Fold change in the secretion of inflammatory mediators: PGE2 [2]: 0.8
- Fold change in the secretion of inflammatory mediators: PGF2α [2]: 0.9
- COX-2:GAPDH [3]: 0.275
- Fluorescence intensity ([4]; 40 μM peptide): 628.27 fluorescence units
- Fluorescence intensity ([4]; 200 μM peptide): 424.315 fluorescence units
- Fluorescence intensity ([4]; 800 μM peptide): 556.105 fluorescence units
- Intracellular calcium mobilization (in words) [4]: does not induce calcium mobilization; also recorded: do not induce intracellular calcium mobilization

Substance: ISLLRG (ISSLRG; SYTHETIC PEPTIDE) [the control, scrambled peptide]
- Induction of inflammatory mediators (in words) [2]: did not induce these inflammatory mediators
- Fold change in the secretion of inflammatory mediators: IL-6 [2]: 1.1
- Fold change in the secretion of inflammatory mediators: IL-8 [2]: 1.0
- Fold change in the secretion of inflammatory mediators: PGE2 [2]: 0.8
- Fold change in the secretion of inflammatory mediators: PGF2α [2]: 1.0
- Fluorescence intensity ([4]; 40 μM peptide): 535.54 fluorescence units
- Fluorescence intensity ([4]; 400 μM peptide): 744.95 fluorescence units
- Intracellular calcium mobilization (in words) [4]: do not induce intracellular calcium mobilization

Substance: SLIGRL-NH2
- Fold Change (MUC1:GAPDH) [1]: 0.7
- Increase in the expression and secretion of several inflammatory mediators [2]: 1.5-3 times
- Fold change in the secretion of inflammatory mediators: IL-6 [2]: 2.7
- Fold change in the secretion of inflammatory mediators: IL-8 [2]: 3.0
- Fold change in the secretion of inflammatory mediators: PGE2 [2]: 2.3
- Fold change in the secretion of inflammatory mediators: PGF2α [2]: 1.5
- COX-2:GAPDH [3]: 1.168
- COX-2 expression in vivo (in words) ([3]; 100 μM topical, mouse skin): increased
- Fluorescence intensity ([4]; 4 μM peptide): 1386.9 fluorescence units
- Fluorescence intensity ([4]; 8 μM peptide): 1904.015 fluorescence units
- Fluorescence intensity ([4]; 20 μM peptide): 2003.095 fluorescence units
- Fluorescence intensity ([4]; 40 μM peptide): 2842.92 fluorescence units
- Intracellular calcium mobilization (in words) [4]: dose dependent increase
- Tear secretion (in words) [5]: induce Tear Secretion
